What was measured:
Benzodiazepine receptors = experiment: 3H-flunitrazepam and 3H-RO 15-1788 binding to crude synaptosomal pellets of brains of rats treated for 21 days; assay type: in vivo, rat
Description: (§1) 20 male rats, maintained on a daily 14 hour light/10 hour darkness schedule, were divided into 4 groups, each consisting of 5 members:
(§2) Group 1 (the control group): rats were injected daily with 200 μl saline intraperitoneally for 21 days and were allowed to drink tap water.
(§3) They also were provided with regular tap water.
(§4) Group 3 (the melatonin group): rats were injected daily with 200 μl saline intraperitoneally. Their only available drinking water contained 0.4% by weight melatonin.
(§5) Each group was allowed food and water ad libitum. After 21 days the treatment was stopped. The animals were decapitated between 6:00 and 7:00 p.m. the next day, their brains were rapidly removed and crude synaptosomal pellets were prepared, and melatonin receptors were assessed using 2-^125I-melatonin, as described by Laudon, M., and N. Zisapel, FEBS Lett. 197:9 (1986). Benzodiazepine receptors were assessed by measuring the binding of radioactive benzodiazepine receptor probes ^3H-flunitrazepam (^3H-FNZ) and ^3H-RO 15-1788 as described by Amiri, Z. et al. Brain Res. 553:155 (1991). Binding parameters were calculated from the equilibrium binding data. […] Binding parameters of the various groups were compared by analysis of variance followed by Student-Newman-Keul's test for multiple comparison. Differences were considered significant if P<0.05.

[1] = case study: withdrawal from benzodiazepine tolerance and sleep in a patient; assay type: in vivo, human
Excerpt: This example illustrates the action of melatonin in facilitating rapid withdrawal from benzodiazepine tolerance. A person, married with two children, had been suffering from sleep onset insomnia for 10 years, accompanied by frequent and severe migraine attacks. A thorough neurological assessment was negative. Psychiatric or other organic problems also were ruled out.
The patient had been treated with benzodiazepines, tricyclic antidepressants and neuroleptic drugs, as well as biofeedback and relaxation methods with no apparent relief throughout the 10 year period. For the last year, they had been taking 4-8 mg Lorazepam every night, taking a 0.5 mg tablet every half hour or hour throughout the night. This led to difficulties when the patient arose in the morning; they would feel heavily sedated and had problems functioning at work, especially when under pressure. They began to feel that they were losing their memory and ability to concentrate.
(§6) The quality of sleep was assessed by an actigraph tracing which automatically monitors the bedtime sleep-wake pattern through a small device attached to the hand. […] Urine was collected every three hours for 36 hours and assayed for the diurnal secretion of […] melatonin.
(§7) Oral administration of a controlled release melatonin formulation in the form of tablets containing 1 mg melatonin (Neurim Pharmaceuticals, Israel) (made in accordance with the procedures set forth in example 1 for tablet SR-A) was initiated in order to correct for the deficiency and distortion of the melatonin rhythm. One tablet was administered daily at 8:30 p.m. The patient was asked to gradually reduce the number of benzodiazepine tablets taken each night.
(§8) The treatment was stopped and 2 weeks afterwards the patient's urine was collected again every three hours over a 36 hour period and assayed for 6-sulfatoxymelatonin. […] A three month follow-up confirmed that the patient maintained their quality of sleep and hardly suffered from headaches. After 6 months without treatment the patient's sleep quality began to deteriorate and melatonin therapy was resumed. The therapy restored their sleep quality and the patient continues to take 3 mg melatonin daily.

melatonin receptors = experiment: 2-125I-melatonin binding to crude synaptosomal pellets of brains of rats treated for 21 days; assay type: in vivo, rat; settings: 21 days treatment
Description: as §1, §2, §3, §4, §5

[2] = urinary 6-sulfatoxymelatonin in benzodiazepine-dependent patient after melatonin therapy; assay type: in vivo, human; settings: for Urinary 6-sulfatoxymelatonin after treatment: 2 weeks after stopping 1 mg controlled release melatonin daily
Description: as §6, §7, §8

[3] = long term melatonin in two insomnia patients dependent upon flunitrazepam; assay type: in vivo, human
Description: Two volunteers, […], a person, and […], a person, had each suffered for a number of years from insomnia and/or frequent awakenings during the night accompanied by difficulty in falling asleep again. […] Both patients had been taking 1-2 mg of flunitrazepam orally prior to retiring each evening.
Each patient was weaned off of the flunitrazepam via gradual reduction and simultaneous administration of melatonin over a two month period. During this time, each patient received 2 mg melatonin in controlled release form daily. Since the end of that two month period, each patient has been taking 2 mg oral controlled release melatonin for almost two years.
[…] Each patient also reported reduced fatigue during the daytime within several days after the beginning of the weaning period.

[4] = cerebral cortex, 21 days treatment
[5] = 1 mg controlled release melatonin tablet daily
[6] = 2 mg controlled release melatonin daily, patients

Q: For `COc1ccc2[nH]cc(CCNC(C)=O)c2c1` [melatonin], which “reduction in specific binding of tritiated RO 15-1788 compared with the control group” value (Benzodiazepine receptors; [4]) is on record?
A: The value was 20%.

Q: What about the “reduction in specific binding of tritiated flunitrazepam compared with the control group” value (Benzodiazepine receptors; [4]) of the same molecule?
A: Its value is 20%.

Q: And the “maximal binding (Bmax) of the RO-15-1788 binding sites” value (Benzodiazepine receptors; medulla-pons, 21 days treatment)?
A: The value was “significantly increased”.

Q: And the “headaches (patient's report)” value [1, 5]?
A: Its value is “subsided gradually”.

Q: And the “insomnia (patient's claim)” value [1, 5]?
A: Its value is “improved remarkably”.

Q: What about the “time until the patient stopped using the benzodiazepine hypnotics altogether” value ([1]; 1 mg controlled release melatonin tablet daily at 8:30 p.m., patient on 4-8 mg Lorazepam nightly) of the same molecule?
A: Its value is at most 2 days.

Q: What about the “sleep pattern, repeated actigraph tracing” value ([1]; after 3 weeks of melatonin treatment) of the same molecule?
A: Its value is “marked improvement”.

Q: What about the “sleep quality after melatonin therapy was resumed” value ([1]; resumed after 6 months without treatment) of the same molecule?
A: Its value is “restored”.

Q: And the “binding of melatonin compared with the control group” value (melatonin receptors)?
A: The value was “no difference”.

Q: What about the “urinary 6-sulfatoxymelatonin, change after therapy” value ([2]; 2 weeks after treatment was stopped, urine every three hours over 36 hours) of the same molecule?
A: Its value is “increase in amount and a clear nocturnal peak”.

Q: And the “Urinary 6-sulfatoxymelatonin after treatment” value ([2]; time 3.00)?
A: Its value is 0.74 µg/h.

Q: And the “Urinary 6-sulfatoxymelatonin after treatment” value ([2]; time 6.00)?
A: The value was 0.36 µg/h.

Q: What about the “Urinary 6-sulfatoxymelatonin after treatment” value ([2]; time 9.00) of the same molecule?
A: Its value is 0.21 µg/h.

Q: What about the “Urinary 6-sulfatoxymelatonin after treatment” value ([2]; time 12.00) of the same molecule?
A: Its value is 0.01 µg/h.

Q: What about the “Urinary 6-sulfatoxymelatonin after treatment” value ([2]; time 15.00 (first)) of the same molecule?
A: Its value is 0.11 µg/h.

Q: And the “Urinary 6-sulfatoxymelatonin after treatment” value ([2]; time 15.00 (second))?
A: The value was 0.04 µg/h.

Q: What about the “Urinary 6-sulfatoxymelatonin after treatment” value ([2]; time 18.00) of the same molecule?
A: Its value is 0.45 µg/h.

Q: What about the “Urinary 6-sulfatoxymelatonin after treatment” value ([2]; time 21.00) of the same molecule?
A: The value was 0.11 µg/h.

Q: And the “Urinary 6-sulfatoxymelatonin after treatment” value ([2]; time 24.00)?
A: Its value is 1.24 µg/h.

Q: What about the “sleep inducement (subjective report)” value [3, 6] of the same molecule?
A: The value was “good”.

Q: What about the “sleep quality (subjective report)” value [3, 6] of the same molecule?
A: The value was “substantial improvement”.

Q: What about the “residual tiredness in the morning or hangover feeling” value ([3]; 2 mg oral controlled release melatonin) of the same molecule?
A: Its value is “has not caused any”.

Q: What about the side effects reported ([3]; 2 mg oral controlled release melatonin for almost two years) of the same molecule?
A: The side effects reported was “No side effects”.

Q: And the “fatigue during the daytime” value ([3]; within several days after the beginning of the weaning period)?
A: Its value is “reduced”.

Q: What does the source list for `CN1C(=O)CN=C(c2ccccc2)c2cc(Cl)ccc21` [diazepam]?
A: effect on RO 15-1788 and flunitrazepam binding sites (Benzodiazepine receptors; [4]): did not significantly affect; effect on the melatonin-mediated decrease in specific binding (Benzodiazepine receptors; cerebral cortex, diazepam given together with melatonin): prevented
